Patent US8969542B2, “HPV polyepitope constructs and uses thereof” (priority 2007, dated 2015)

Tests used:
[1] = system: CD8+ spleen cells of HLA transgenic mice (HLA-A01/Kb, F1 HLA-A02/KbxBalb/c, HLA-A11/Kb, HLA-A24/Kb); test: Immunogenicity after HPV DNA construct immunization, direct ex vivo IFNγ ELISPOT; format: in vivo, mouse; settings: for ICCG6138 SFC/10^6 cells Delta / ICCG6138 SFC/10^6 cells Ratio: immunization with DNA construct ICCG 6138; for ICCG6138 SFC/10^6 cells Delta / ICCG6137 SFC/10^6 cells Delta: HLA transgenic mice (HLA-A01/A02/A11/A24), CD8+ cells restimulated with WT peptide 10 μg/mL; for ICCG6138 SFC/10^6 cells Delta / ICCG6138 SFC/10^6 cells Ratio / ICCG6137 SFC/10^6 cells Delta / ICCG6137 SFC/10^6 cells Ratio: IFNγ ELISPOT; for ICCG6138 SFC/10^6 cells Ratio / ICCG6137 SFC/10^6 cells Ratio: HLA transgenic mice, response ratio, WT peptide 10 μg/mL; for ICCG6137 SFC/10^6 cells Delta / ICCG6137 SFC/10^6 cells Ratio: immunization with DNA construct ICCG 6137
Description: The immunogenicity of HPV HLA class I-restricted epitopes encoded in the DNA constructs was tested in the relevant HLA transgenic mice. […] To ensure an equal distribution of mice between different groups, a randomisation procedure based on body weight was performed. Female and male mice (age between 8 and 24 weeks) were ranked by body weight, extreme light or heavy animals were excluded. The remaining animals were grouped by sequentially assigning animals for the 2 experiments.
Mice were pre-treated with cardiotoxin (Sigma, C9759) on day −4 by bilateral intramuscular injection of 100 μl (2×50 μl) of a 10 μM cardiotoxin solution. Four days later, all mice were immunised with 100 μg HPV-DNA plasmid (diluted to 1 mg/ml in PBS) by bilateral injection of 50 μg in the m. tibialis anterior. […]
(§1) Mice were euthanized and spleen cells (SPC) were isolated 13 days after immunization. […] Spleen cells of DNA- and peptide-immunized HLA-A11/Kb mice were analyzed individually. SPC of all negative control mice were pooled per 2 mice, resulting in 3 data points for each peptide tested.
(§2) A direct ex vivo IFNγ ELISPOT assay was used as surrogate CTL readout. Basically, purified CD8+ cells were incubated with the individual HPV-specific HLA-restricted peptides (10 μg/mL) loaded on the appropriate antigen presenting cells (APC), in anti-mouse IFNγ antibody-coated ELISPOT plates. […] After 20 h incubation, IFNγ-producing cells were visualized by further developing the plates with biotinylated anti-mouse IFNγ antibody, streptavidin-HRP and AEC as substrate.
(§3) Some of the CTL epitopes included in the DNA constructs are analoged sequences of the wild type viral epitopes. For these particular epitopes, only the wild type sequences were used as in vitro stimulus for CTL readout.

[2] = system: CD8+ spleen cells of HLA transgenic mice (HLA-A01/Kb, F1 HLA-A02/KbxBalb/c, HLA-A11/Kb, HLA-A24/Kb); test: Immunogenicity after peptide pool/IFA immunization, direct ex vivo IFNγ ELISPOT; format: in vivo, mouse; settings: for Delta SFC/10^6 cells / Ratio: Peptide Pool; for Peptide Pool SFC/10^6 cells Delta / Peptide Pool SFC/10^6 cells Ratio: immunization with pool of peptides emulsified in IFA, IFNγ ELISPOT; for Peptide Pool SFC/10^6 cells Delta: HLA transgenic mice (HLA-A01/A02/A11/A24), CD8+ cells restimulated with WT peptide 10 μg/mL; for Peptide Pool SFC/10^6 cells Ratio: HLA transgenic mice, response ratio, WT peptide 10 μg/mL
Description: CTL binding epitopes were evaluated for their immunogenicity in different HLA transgenic mice. To this, a single immunization with CTL peptide pools together with a common HTL epitope emulsified in IFA was performed and up to 14 days later, CD8+ spleen cells were isolated and evaluated for epitope specificity using a direct ex vivo IFNγ ELISPOT assay.
Peptides were dissolved in DMSO at a concentration of 10 mg/mL. For each of the 4 DNA constructs, the corresponding HLA-restricted peptides were pooled per HLA type (5 to 7 CTL peptides/pool). A known HTL peptide ([…]) was added and the peptide pools were diluted in PBS to the required peptide concentration (i.e. 25 μg of each CTL peptide and 120 μg HTL peptide in 50 μl). After adding an equal volume of IFA (Pierce, lot DG56079), the mixture was emulsified by forcing it through a small orifice. Mice were immunized subcutaneously at the base of the tail with 50 μl peptide/IFA mixture.
As negative control for the peptide-immunized mice, 18 mice (in total) were injected with a PBS/IFA mixture.
as §1, §2, §3

[3] = HLA-A01 epitopes, HLA-A01/Kb mice, DNA construct ICCG6150, median of mouse pools
[4] = HLA-A01 epitopes, HLA-A01/Kb mice, median of mouse pools
[5] = HLA-A02 epitopes, F1 HLA-A02/KbxBalb/c mice, DNA construct ICCG6149, median of mouse pools
[6] = HLA-A02 epitopes, F1 HLA-A02/KbxBalb/c mice, DNA construct ICCG6150, median of mouse pools
[7] = HLA-A02 epitopes, F1 HLA-A02/KbxBalb/c mice, median of mouse pools
[8] = HLA-A11 epitopes, HLA-A11/Kb mice, DNA construct ICCG6149, median
[9] = HLA-A11 epitopes, HLA-A11/Kb mice, DNA construct ICCG6150, median
[10] = HLA-A11 epitopes, HLA-A11/Kb mice, median
[11] = HLA-A24 epitopes, HLA-A24/Kb mice, DNA construct ICCG6149, median of mouse pools
[12] = HLA-A24 epitopes, HLA-A24/Kb mice, DNA construct ICCG6150, median of mouse pools
[13] = HLA-A24 epitopes, HLA-A24/Kb mice, median of mouse pools

Substance: 132 (ISEYRHYCY; Human papillomavirus type 16) [compound 132]
- Delta SFC/10^6 cells [1, 3]: 3 SFC/10^6 cells
- Ratio [1, 3]: 1.1
- Delta SFC/10^6 cells [2, 4]: 2 SFC/10^6 cells
- Ratio [2, 4]: 1.1

Substance: 133 (YMLDLQPETT; Human papillomavirus type 16) [compound 133]
- Delta SFC/10^6 cells [1, 5]: 5 SFC/10^6 cells
- Ratio [1, 5]: 1.4
- Delta SFC/10^6 cells [1, 6]: 10 SFC/10^6 cells
- Ratio [1, 6]: 3.3
- Delta SFC/10^6 cells [2, 7]: 1 SFC/10^6 cells
- Ratio [2, 7]: 1.0

Substance: 134 (GTLGIVCPI; Human papillomavirus type 16) [compound 134]
- Delta SFC/10^6 cells [1, 5]: 1 SFC/10^6 cells
- Ratio [1, 5]: 1.0
- Delta SFC/10^6 cells [1, 6]: 3 SFC/10^6 cells
- Ratio [1, 6]: 1.7
- Delta SFC/10^6 cells [2, 7]: 55 SFC/10^6 cells
- Ratio [2, 7]: 8.0

Substance: 135 (TIHDIILECV; Human papillomavirus type 16) [compound 135]
- Delta SFC/10^6 cells [1, 5]: 562 SFC/10^6 cells
- Ratio [1, 5]: 86.7
- Delta SFC/10^6 cells [1, 6]: 358 SFC/10^6 cells
- Ratio [1, 6]: 24.8
- Delta SFC/10^6 cells [2, 7]: 80 SFC/10^6 cells
- Ratio [2, 7]: 10.0

Substance: 136 (KLTNTGLYNL; Human papillomavirus type 18) [compound 136]
- Delta SFC/10^6 cells [1, 5]: 6 SFC/10^6 cells
- Ratio [1, 5]: 2.0
- Delta SFC/10^6 cells [1, 6]: 20 SFC/10^6 cells
- Ratio [1, 6]: 2.7
- Delta SFC/10^6 cells [2, 7]: 280 SFC/10^6 cells
- Ratio [2, 7]: 29.0

Substance: 137 (DSVYGDTLEK; Human papillomavirus type 18) [compound 137]
- Delta SFC/10^6 cells [1, 8]: 15 SFC/10^6 cells
- Ratio [1, 8]: 1.2
- Delta SFC/10^6 cells [1, 9]: 1 SFC/10^6 cells
- Ratio [1, 9]: 1.0
- Delta SFC/10^6 cells [2, 10]: 40 SFC/10^6 cells
- Ratio [2, 10]: 1.1

Substance: 138 (FVVYRDSIPH; Human papillomavirus type 18) [compound 138]
- Delta SFC/10^6 cells [1, 8]: 1 SFC/10^6 cells
- Ratio [1, 8]: 1.0
- Delta SFC/10^6 cells [1, 9]: 1 SFC/10^6 cells
- Ratio [1, 9]: 1.0
- Delta SFC/10^6 cells [2, 10]: 110 SFC/10^6 cells
- Ratio [2, 10]: 1.3

Substance: 139 (CYSLYGTTL; Human papillomavirus type 16) [compound 139]
- Delta SFC/10^6 cells [1, 11]: 3 SFC/10^6 cells
- Ratio [1, 11]: 1.0
- Delta SFC/10^6 cells [1, 12]: 1 SFC/10^6 cells
- Ratio [1, 12]: 1.0
- Delta SFC/10^6 cells [2, 13]: 1 SFC/10^6 cells
- Ratio [2, 13]: 1.0

Substance: 140 (PYAVCDKCL; Human papillomavirus type 16) [compound 140]
- Delta SFC/10^6 cells [1, 11]: 3 SFC/10^6 cells
- Ratio [1, 11]: 1.1
- Delta SFC/10^6 cells [1, 12]: 1 SFC/10^6 cells
- Ratio [1, 12]: 1.0
- Delta SFC/10^6 cells [2, 13]: 150 SFC/10^6 cells
- Ratio [2, 13]: 4.2

Substance: 141 (RFHNIRGRW; Human papillomavirus type 16) [compound 141]
- Delta SFC/10^6 cells [1, 11]: 3 SFC/10^6 cells
- Ratio [1, 11]: 1.1
- Delta SFC/10^6 cells [1, 12]: 1 SFC/10^6 cells
- Ratio [1, 12]: 1.0
- Delta SFC/10^6 cells [2, 13]: 205 SFC/10^6 cells
- Ratio [2, 13]: 6.9

Substance: 143 (LYNLLIRWL; Human papillomavirus type 18-derived epitope) [compound 143]
- Delta SFC/10^6 cells [1, 11]: 3 SFC/10^6 cells
- Ratio [1, 11]: 1.0
- Delta SFC/10^6 cells [1, 12]: 1 SFC/10^6 cells
- Ratio [1, 12]: 1.0
- Delta SFC/10^6 cells [2, 13]: 30 SFC/10^6 cells
- Ratio [2, 13]: 1.5

Substance: 144 (LYGVSFTEL; Human papillomavirus type 16-derived epitope) [compound 144]
- Delta SFC/10^6 cells [1, 11]: 3 SFC/10^6 cells
- Ratio [1, 11]: 1.0
- Delta SFC/10^6 cells [1, 12]: 1 SFC/10^6 cells
- Ratio [1, 12]: 1.0
- Delta SFC/10^6 cells [2, 13]: 5 SFC/10^6 cells
- Ratio [2, 13]: 1.1

Substance: 145 (CYSVYGTTL; Human papillomavirus type 16-derived epitope) [compound 145]
- Delta SFC/10^6 cells [1, 11]: 23 SFC/10^6 cells
- Ratio [1, 11]: 1.4
- Delta SFC/10^6 cells [1, 12]: 90 SFC/10^6 cells
- Ratio [1, 12]: 2.6
- Delta SFC/10^6 cells [2, 13]: 55 SFC/10^6 cells
- Ratio [2, 13]: 1.8

Substance: 146 (QAEPDTSNY; Human papillomavirus type 31) [compound 146]
- ICCG6138 SFC/10^6 cells Delta [1]: 23 SFC/10^6 cells
- ICCG6138 SFC/10^6 cells Ratio [1]: 2.5
- Peptide Pool SFC/10^6 cells Delta [2]: 4 SFC/10^6 cells
- Peptide Pool SFC/10^6 cells Ratio [2]: 1.2

Substance: 147 (LQDVSIACVY; Human papillomavirus type 45) [compound 147]
- ICCG6138 SFC/10^6 cells Delta [1]: 6 SFC/10^6 cells
- ICCG6138 SFC/10^6 cells Ratio [1]: 1.4
- Peptide Pool SFC/10^6 cells Delta [2]: 1 SFC/10^6 cells
- Peptide Pool SFC/10^6 cells Ratio [2]: 1.0

Substance: 148 (FAFTDLTIV; Human papillomavirus type 31) [compound 148]
- ICCG6137 SFC/10^6 cells Delta [1]: 1 SFC/10^6 cells
- ICCG6137 SFC/10^6 cells Ratio [1]: 1.0
- ICCG6138 SFC/10^6 cells Delta [1]: 1 SFC/10^6 cells
- ICCG6138 SFC/10^6 cells Ratio [1]: 1.0
- Peptide Pool SFC/10^6 cells Delta [2]: 100 SFC/10^6 cells
- Peptide Pool SFC/10^6 cells Ratio [2]: 8.5

Substance: 149 (YQFAFKDLCI; Human papillomavirus type 45) [compound 149]
- ICCG6137 SFC/10^6 cells Delta [1]: 3 SFC/10^6 cells
- ICCG6137 SFC/10^6 cells Ratio [1]: 1.1
- ICCG6138 SFC/10^6 cells Delta [1]: 1 SFC/10^6 cells
- ICCG6138 SFC/10^6 cells Ratio [1]: 1.0
- Peptide Pool SFC/10^6 cells Delta [2]: 10 SFC/10^6 cells
- Peptide Pool SFC/10^6 cells Ratio [2]: 2.0

Substance: 150 (TLQEIVLHL; Human papillomavirus type 45) [compound 150]
- ICCG6137 SFC/10^6 cells Delta [1]: 5 SFC/10^6 cells
- ICCG6137 SFC/10^6 cells Ratio [1]: 2.0
- ICCG6138 SFC/10^6 cells Delta [1]: 3 SFC/10^6 cells
- ICCG6138 SFC/10^6 cells Ratio [1]: 1.3
- Peptide Pool SFC/10^6 cells Delta [2]: 70 SFC/10^6 cells
- Peptide Pool SFC/10^6 cells Ratio [2]: 8.0

Substance: 151 (RTEVYQFAFK; Human papillomavirus type 45) [compound 151]
- ICCG6137 SFC/10^6 cells Delta [1]: 1 SFC/10^6 cells
- ICCG6137 SFC/10^6 cells Ratio [1]: 1.0
- ICCG6138 SFC/10^6 cells Delta [1]: 1 SFC/10^6 cells
- ICCG6138 SFC/10^6 cells Ratio [1]: 1.0
- Peptide Pool SFC/10^6 cells Delta [2]: 1 SFC/10^6 cells
- Peptide Pool SFC/10^6 cells Ratio [2]: 1.0

Substance: 152 (SVYGTTLEK; Human papillomavirus type 31) [compound 152]
- ICCG6137 SFC/10^6 cells Delta [1]: 1050 SFC/10^6 cells
- ICCG6137 SFC/10^6 cells Ratio [1]: 5.4
- ICCG6138 SFC/10^6 cells Delta [1]: 1150 SFC/10^6 cells
- ICCG6138 SFC/10^6 cells Ratio [1]: 9.7
- Peptide Pool SFC/10^6 cells Delta [2]: 730 SFC/10^6 cells
- Peptide Pool SFC/10^6 cells Ratio [2]: 6.2

Substance: 153 (HYTNWKFIY; Human papilloma virus) [compound 153]
- ICCG6137 SFC/10^6 cells Delta [1]: 19 SFC/10^6 cells
- ICCG6137 SFC/10^6 cells Ratio [1]: 1.3
- ICCG6138 SFC/10^6 cells Delta [1]: 58 SFC/10^6 cells
- ICCG6138 SFC/10^6 cells Ratio [1]: 1.3
- Peptide Pool SFC/10^6 cells Delta [2]: 155 SFC/10^6 cells
- Peptide Pool SFC/10^6 cells Ratio [2]: 2.7
